Measured values as given in paper PMC6934184, “Selective DNA-PKcs inhibition extends the therapeutic index of localized radiotherapy and chemotherapy” (The Journal of Clinical Investigation, 2019).

Target: T1, PRKG1 (Homo sapiens, UniProt Q13976)
T1 construct: purchased Thermo Fisher Scientific (Life Technologies) SelectScreen
Assay: SelectScreen Z'LYTE
Format: biochemical
Method in brief: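 Percent values come from Thermo SelectScreen profiling of NU5455, combining activity and binding assays. CSF1R was run in Z'LYTE format at Km app ATP, and CAMK1 in Adapta format with ATP listed at 10.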

T1 sequence (Q13976 whole entry): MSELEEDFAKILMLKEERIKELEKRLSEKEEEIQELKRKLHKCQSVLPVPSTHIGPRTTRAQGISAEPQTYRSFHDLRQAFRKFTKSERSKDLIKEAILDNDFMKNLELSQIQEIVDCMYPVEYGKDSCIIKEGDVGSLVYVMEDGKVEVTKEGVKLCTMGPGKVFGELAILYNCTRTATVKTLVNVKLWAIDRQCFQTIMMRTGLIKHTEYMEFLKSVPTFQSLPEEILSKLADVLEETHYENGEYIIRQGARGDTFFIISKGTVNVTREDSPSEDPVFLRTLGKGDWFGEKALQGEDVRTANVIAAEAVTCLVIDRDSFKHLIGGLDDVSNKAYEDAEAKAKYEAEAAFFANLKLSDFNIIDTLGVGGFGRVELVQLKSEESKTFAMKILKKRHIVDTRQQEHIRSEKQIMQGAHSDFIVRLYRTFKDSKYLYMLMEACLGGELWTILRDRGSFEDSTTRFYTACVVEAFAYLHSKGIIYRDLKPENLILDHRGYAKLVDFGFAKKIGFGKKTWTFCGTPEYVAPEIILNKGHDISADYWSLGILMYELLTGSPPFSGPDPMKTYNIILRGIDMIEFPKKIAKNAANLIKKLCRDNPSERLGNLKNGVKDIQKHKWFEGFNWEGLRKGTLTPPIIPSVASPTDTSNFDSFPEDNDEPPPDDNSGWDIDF

`CN(C(=O)CN1CCOCC1)c1ccc2sc3c(-c4cccc5c(=O)cc(N6CC7CCC(C6)O7)oc45)cccc3c2c1` [NU5455] was tested, and the inhibition at 1 µM was -2.7%.
